According to article PMC6272579, “A Three-Enzyme-System to Degrade Curcumin to Natural Vanillin” (Molecules, 2015):

Target: T1, CAL (Moesziomyces antarcticus, UniProt P41365)
T1 construct: immobilised commercial lipase Novozyme_435 (known to be lipase B)
T1 sequence (P41365 26-342): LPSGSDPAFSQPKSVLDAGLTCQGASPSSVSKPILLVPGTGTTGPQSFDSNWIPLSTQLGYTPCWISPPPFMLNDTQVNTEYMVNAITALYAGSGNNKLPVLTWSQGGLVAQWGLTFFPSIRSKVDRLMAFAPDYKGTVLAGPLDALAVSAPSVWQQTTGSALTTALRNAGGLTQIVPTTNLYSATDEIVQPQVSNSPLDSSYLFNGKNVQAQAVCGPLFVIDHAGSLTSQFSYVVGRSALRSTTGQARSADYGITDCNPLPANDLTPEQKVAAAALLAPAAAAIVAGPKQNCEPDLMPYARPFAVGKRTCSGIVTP
Experiment: lipase-catalysed acetylation, LC-MS
Format: biochemical
Conditions: immobilised enzyme; ethyl acetate/toluene 10:90, 4% acetate buffer pH 6, 40 °C; acyl donor geranyl acetate 1:50; acyl donor to curcumin

- lipase-catalysed acetylation, LC-MS: using geranyl acetate as the acyl donor
SMILES: CC(=O)OC/C=C(\C)CCC=C(C)C [geranyl acetate]
